# Data reported in the supplement of paper PMC10307832.
# Assays:
# Experiment in all cases: relative viability (nuclei count vs DMSO), 5 days (fraction); higher = more cells survive
# [1] = test system: HCC-78
# How it was run: (§1)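 Medians of duplicate plates are given as relative viability. That measure is the nuclei count in treated wells divided by the count in vehicle wells. Counts were taken on 4× images of lung cancer cell lines in 1536-well plates, 5 days after pin-tool dosing the day after seeding with one drug alone or a fixed anchor-drug dose plus five library-drug doses (not always all listed) in √10 steps.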
# [2] = test system: NCI-H2228
# How it was run: as §1
# [3] = test system: NCI-H460
# How it was run: as §1
# [4] = test system: NCI-H358
# How it was run: as §1
# [5] = test system: RERF-LC-KJ
# How it was run: as §1
# [6] = test system: NCI-H2347
# How it was run: as §1
# [7] = test system: NCI-H1734
# How it was run: as §1
# [8] = test system: PC-3 [JPC-3]
# How it was run: as §1
# [9] = test system: LXF-289
# How it was run: as §1
# [10] = test system: HOP-62
# How it was run: as §1
# [11] = test system: NCI-H647
# How it was run: as §1
# [12] = test system: A-427
# How it was run: as §1
# [13] = test system: SW 1573
# How it was run: as §1
# [14] = test system: LOU-NH91
# How it was run: as §1
# [15] = test system: LC-2-ad
# How it was run: as §1
# [16] = test system: NCI-H1975
# How it was run: as §1
# [17] = test system: NCI-H1915
# How it was run: as §1
# [18] = test system: NCI-H1792
# How it was run: as §1
# [19] = test system: NCI-H2126
# How it was run: as §1
# [20] = test system: SK-LU-1
# How it was run: as §1
# [21] = test system: HCC-15
# How it was run: as §1
# [22] = test system: NCI-H1755
# How it was run: as §1
structure (smiles),measurement,setting,value
C[C@@H]1CN(CC(=O)Nc2ccc3c(c2)Cc2cccc(-c4cc(=O)cc(N5CCOCC5)o4)c2S3)C[C@H](C)O1 + CS(=O)(=O)N1CCN(Cc2cc3nc(-c4cccc5[nH]ncc45)nc(N4CCOCC4)c3s2)CC1 [Pictilisib] (partner 1 µM),relative viability,[1]; first compound 0.04 µM,0.208
same,relative viability,[1]; first compound 0.1265 µM,0.2
same,relative viability,[1]; first compound 0.4 µM,0.168
same,relative viability,[1]; first compound 4 µM,0.265
same,relative viability,[2]; first compound 0.04 µM,0.355
same,relative viability,[2]; first compound 0.1265 µM,0.256
same,relative viability,[2]; first compound 0.4 µM,0.372
same,relative viability,[2]; first compound 4 µM,0.472
same,relative viability,[3]; first compound 0.04 µM,0.258
same,relative viability,[3]; first compound 0.1265 µM,0.404
same,relative viability,[3]; first compound 0.4 µM,0.279
same,relative viability,[3]; first compound 4 µM,0.346
same,relative viability,[4]; first compound 0.04 µM,0.355
same,relative viability,[4]; first compound 0.1265 µM,0.343
same,relative viability,[4]; first compound 0.4 µM,0.3
same,relative viability,[4]; first compound 4 µM,0.247
same,relative viability,[5]; first compound 0.04 µM,0.591
same,relative viability,[5]; first compound 0.1265 µM,0.531
same,relative viability,[5]; first compound 0.4 µM,0.523
same,relative viability,[5]; first compound 4 µM,0.487
same,relative viability,[6]; first compound 0.04 µM,0.961
same,relative viability,[6]; first compound 0.1265 µM,0.577
same,relative viability,[6]; first compound 0.4 µM,0.747
same,relative viability,[6]; first compound 4 µM,0.313
same,relative viability,[7]; first compound 0.04 µM,0.526
same,relative viability,[7]; first compound 0.1265 µM,0.489
same,relative viability,[7]; first compound 0.4 µM,0.468
same,relative viability,[7]; first compound 4 µM,0.487
same,relative viability,[8]; first compound 0.04 µM,0.714
same,relative viability,[8]; first compound 0.1265 µM,0.724
same,relative viability,[8]; first compound 0.4 µM,0.801
same,relative viability,[8]; first compound 4 µM,0.669
same,relative viability,[9]; first compound 0.04 µM,0.852
same,relative viability,[9]; first compound 0.1265 µM,0.789
same,relative viability,[9]; first compound 0.4 µM,0.78
same,relative viability,[9]; first compound 4 µM,0.792
same,relative viability,[10]; first compound 0.04 µM,0.359
same,relative viability,[10]; first compound 0.1265 µM,0.626
same,relative viability,[10]; first compound 0.4 µM,0.753
same,relative viability,[10]; first compound 4 µM,0.605
same,relative viability,[11]; first compound 0.04 µM,0.258
same,relative viability,[11]; first compound 0.1265 µM,0.397
same,relative viability,[11]; first compound 0.4 µM,0.204
same,relative viability,[11]; first compound 4 µM,0.393
same,relative viability,[12]; first compound 0.04 µM,0.581
same,relative viability,[12]; first compound 0.1265 µM,0.674
same,relative viability,[12]; first compound 0.4 µM,0.679
same,relative viability,[12]; first compound 4 µM,0.675
same,relative viability,[13]; first compound 0.04 µM,0.536
same,relative viability,[13]; first compound 0.1265 µM,0.531
same,relative viability,[13]; first compound 0.4 µM,0.489
same,relative viability,[13]; first compound 4 µM,0.486
same,relative viability,[14]; first compound 0.04 µM,0.554
same,relative viability,[14]; first compound 0.1265 µM,0.529
same,relative viability,[14]; first compound 0.4 µM,0.505
same,relative viability,[14]; first compound 4 µM,0.539
same,relative viability,[15]; first compound 0.04 µM,1.12
same,relative viability,[15]; first compound 0.1265 µM,0.43
same,relative viability,[15]; first compound 0.4 µM,0.29
same,relative viability,[15]; first compound 4 µM,0.537
same,relative viability,[16]; first compound 0.04 µM,0.32
same,relative viability,[16]; first compound 0.1265 µM,0.263
same,relative viability,[16]; first compound 0.4 µM,0.279
same,relative viability,[16]; first compound 4 µM,0.298
same,relative viability,[17]; first compound 0.04 µM,0.888
same,relative viability,[17]; first compound 0.1265 µM,0.961
same,relative viability,[17]; first compound 0.4 µM,0.97
same,relative viability,[17]; first compound 4 µM,0.774
same,relative viability,[18]; first compound 0.04 µM,0.242
same,relative viability,[18]; first compound 0.1265 µM,0.264
same,relative viability,[18]; first compound 0.4 µM,0.274
same,relative viability,[18]; first compound 4 µM,0.287
same,relative viability,[19]; first compound 0.04 µM,0.536
same,relative viability,[19]; first compound 0.1265 µM,0.49
same,relative viability,[19]; first compound 0.4 µM,0.459
same,relative viability,[19]; first compound 4 µM,0.487
same,relative viability,[20]; first compound 0.04 µM,0.657
same,relative viability,[20]; first compound 0.1265 µM,0.594
same,relative viability,[20]; first compound 0.4 µM,0.702
same,relative viability,[20]; first compound 4 µM,0.484
same,relative viability,[21]; first compound 0.04 µM,0.815
same,relative viability,[21]; first compound 0.1265 µM,0.649
same,relative viability,[21]; first compound 0.4 µM,0.796
same,relative viability,[21]; first compound 4 µM,0.636
same,relative viability,[22]; first compound 0.04 µM,0.381
same,relative viability,[22]; first compound 0.1265 µM,0.386
same,relative viability,[22]; first compound 0.4 µM,0.433
same,relative viability,[22]; first compound 4 µM,0.388
